# Assay results taken from publication PMC4757768, “Mechanisms of amphetamine action illuminated through optical monitoring of dopamine synaptic vesicles in Drosophila brain” (Nature Communications, 2016).
# Molecular target: T1, VMAT2 (Rattus norvegicus, UniProt Q01827)
# T1 construct: gene Slc18a2
# Assay: inhibition of [3H]dopamine uptake in digitonin-treated HEK293 cells stably expressing rat VMAT2; binding Ki […] at mammalian VMAT2 also reported
# Assay type: cell-based
# T1 sequence (Q01827 whole entry): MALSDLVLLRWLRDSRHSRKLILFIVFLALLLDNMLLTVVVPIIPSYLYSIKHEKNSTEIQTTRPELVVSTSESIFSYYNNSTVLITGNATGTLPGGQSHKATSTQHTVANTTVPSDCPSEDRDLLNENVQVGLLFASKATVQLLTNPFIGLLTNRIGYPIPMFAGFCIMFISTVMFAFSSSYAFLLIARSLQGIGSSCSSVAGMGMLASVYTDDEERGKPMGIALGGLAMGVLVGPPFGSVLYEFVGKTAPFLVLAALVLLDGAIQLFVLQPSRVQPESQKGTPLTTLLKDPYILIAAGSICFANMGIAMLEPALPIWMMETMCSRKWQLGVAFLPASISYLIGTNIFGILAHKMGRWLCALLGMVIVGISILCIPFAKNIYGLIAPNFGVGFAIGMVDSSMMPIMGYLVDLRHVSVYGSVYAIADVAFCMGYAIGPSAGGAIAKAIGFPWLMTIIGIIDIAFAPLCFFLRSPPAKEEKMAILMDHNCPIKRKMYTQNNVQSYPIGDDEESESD
compound,measurement,value
COc1cc2c(cc1O)[C@H]1CC(=O)[C@H](CC(C)C)CN1CC2 [(+)-CYY477],IC50,26 nM
